The record followed here is US20140045908A1, “HSP90 INHIBITORY COMPOUNDS IN TREATING JAK/STAT SIGNALING-MEDIATED CANCERS” (SYNTA PHARMACEUTICALS CORP., priority 2011, published 2014).

The test system of assay [1] is DU145 cells. Kind of assay: Cell viability assay (AlamarBlue, 72 h). The class given is cell-based, human. The method, then: (§1) All cell lines were obtained from the ATCC (Rockville, Md., USA), with the exception of SET-2 cells which were purchased from the German Collection of Microorganisms and Cell Cultures (DSMZ, Germany). Cells were maintained and cultured according to standard techniques at 37° C. in 5% (v/v) CO2 using culture medium recommended by the supplier.
(§2) Cells were grown in 96-well plates based on optimal growth rates determined empirically for each line. Twenty-four hours after plating, cells were dosed with the indicated compound or DMSO (0.3%) for 72 h. AlamarBlue (Invitrogen, Carlsbad, Calif., USA) was added (10% v/v) to the cells, and the plates were incubated for 3 h and subjected to fluorescence detection (Ex=545 nm, Em=600 nm) in a SpectraMax Plus 384 microplate reader (Molecular Devices, Sunnyvale, Calif., USA). Data are normalized to percent of control, with IC50 values based on a four-parameter logistic dose response curve (model 205) using XLfit version 5.1 from IDBS (Guildford, U.K.).
On the technique in general: Alamar Blue is a resazurin reagent that responds to reducing activity.

Assay [2] relates to SET-2 cells. Kind of assay: Cell viability assay (AlamarBlue, 72 h). The class given is cell-based, human. The method, then:
as §1, §2

Consider `CC(C)c1cc(-c2nnc(O)n2-c2ccc3c(ccn3C)c2)c(O)cc1O` [ganetespib, 3-(2,4-dihydroxy-5-isopropyl-phenyl)-4-(1-methyl-indol-5-yl)-5-hydroxy-[1,2,4] triazole], for which the “induction of cell death” value in assay [1] was “potent inducer of cell death”. The “fold more potent than 17-AAG, cell viability” value in assay [2] is given as “greater than 100 fold”.
